This is an account of results in patent publication US8569509B2, “Thiazole-4-carboxylic acid esters and thioesters as plant protection agents” (priority 2008, dated 2013).

One data set in a line: log P determination (HPLC, calibration with unbranched alkan-2-ones). To be noted: * LC-MS determination in the acidic range at pH 2.7, 0.1% aqueous formic acid and acetonitrile, linear gradient 10% to 95% acetonitrile. It counts as physicochemical. On the procedure: The calibration is carried out using unbranched alkan-2-ones (having 3 to 16 carbon atoms) with known log P values (determination of the log P values by the retention times using linear interpolation between two successive alkanones). The lambda-maX values were determined in the maxima of the chromatographic signals using the UV spectra from 200 nm to 400 nm.
`Cc1cc(C)n(C(C)(C)C(=O)N2CCC(c3nc(C(=O)OC4CCCc5ccccc54)cs3)CC2)n1` (stereo not shown) [compound 368]: the log p is given as 4.04*. Consider `Cc1cc(C)n(C(C)(C)C(=O)N2CCC(c3nc(C(=O)OC[Si](C)(C)C)cs3)CC2)n1` [compound 369], for which the log p is given as 3.84*.

As for `Cc1cc(C)n(C(C)(C)C(=O)N2CCC(c3nc(C(=O)OC4CCCCC4)cs3)CC2)n1` [compound 370], the log p was 3.78*. On the same count and under the same terms, under `Cc1cc(C)n(C(C)(C)C(=O)N2CCC(c3nc(C(=O)OCC4CC4)cs3)CC2)n1` [compound 372] stands 3.86*. In the case of `Cc1cc(C)n(C(C)(C)C(=O)N2CCC(c3nc(C(=O)OC4CCc5ccccc54)cs3)CC2)n1` (stereo not shown) [compound 376], the log p is 3.68*. Still for that read-out and setting: under `Cc1cc(C)n(C(C)(C)C(=O)N2CCC(c3nc(C(=O)Oc4cccc5ccccc45)cs3)CC2)n1` [compound 377] stands 3.82*; under `Cc1cc(C)n(C(C)(C)C(=O)N2CCC(c3nc(C(=O)Oc4ccc5ccccc5c4)cs3)CC2)n1` [compound 378], 3.73*; under `Cc1cc(C)n(C(C)(C)C(=O)N2CCC(c3nc(C(=O)OCc4ccccc4)cs3)CC2)n1` [compound 379], 3.19*.

Regarding `Cc1cc(C)n(C(C)(C)C(=O)N2CCC(c3nc(C(=O)OCCc4ccc(F)cc4)cs3)CC2)n1` [compound 405], the log p is on record as 3.42*. The same measure, in the same setting: under `Cc1cc(C)n(C(C)(C)C(=O)N2CCC(c3nc(C(=O)Oc4ccccc4)cs3)CC2)n1` [compound 412] stands 3.06*; under `Cc1cc(C)n(C(C)(C)C(=O)N2CCC(c3nc(C(=O)Oc4ccc(F)cc4)cs3)CC2)n1` [compound 413], 3.21*.

Turning to `Cc1cc(C)n(C(C)(C)C(=O)N2CCC(c3nc(C(=O)OCc4ccncc4)cs3)CC2)n1` [compound 442], the log p is given as 1.33*. Same read-out and setting: in the case of `Cc1cc(C)n(C(C)(C)C(=O)N2CCC(c3nc(C(=O)OCc4cccs4)cs3)CC2)n1` [compound 443] it was 3.06*.

The same data set, now with this note: * LC-MS determination in the acidic range at pH 2.7, mobile phases 0.1% aqueous formic acid and acetonitrile (0.1% formic acid), linear gradient 10% to 95% acetonitrile; reversed-phase C 18 HPLC.
`CC(C(=O)N1CCC(c2nc(C(=O)Oc3cccc4ccccc34)cs2)CC1)n1ccc(C(F)(F)F)n1` (stereo not shown) [compound 773]: the log p is listed as 3.87*. On the same count and under the same terms, in the case of `CC(C(=O)N1CCC(c2nc(C(=O)OC3CCCCC3)cs2)CC1)n1ccc(C(F)(F)F)n1` (stereo not shown) [compound 774] it was 3.88*. On the same count and under the same terms, in the case of `Cc1cc(C(F)(F)F)nn1CC(=O)N1CCC(c2nc(C(=O)OCc3ccc(Cl)c(Cl)c3)cs2)CC1` [compound 775] it was 4.09*; in that of `Cc1cc(C(F)(F)F)nn1CC(=O)N1CCC(c2nc(C(=O)OCc3ccc(C(F)(F)F)cc3)cs2)CC1` [compound 776], 3.86*.

As for `O=C(Oc1cccc2ccccc12)c1csc(C2CCN(C(=O)Cn3nc(C(F)(F)F)cc3-c3ccccc3)CC2)n1` [compound 777], the log p is given as 4.50*.

Turning to `Cc1cc(C(F)(F)F)nn1CC(=O)N1CCC(c2nc(C(=O)OC/C=C/c3ccccc3)cs2)CC1` [compound 779], the log p is on record as 3.74*. In the case of `Cc1cc(C(F)(F)F)nn1CC(=O)N1CCC(c2nc(C(=O)OCc3cccnc3)cs2)CC1` [compound 780], the log p is recorded as 1.74*. The same measure, in the same setting: under `Cc1cc(C(F)(F)F)nn1CC(=O)N1CCC(c2nc(C(=O)Oc3ccc4cccnc4c3)cs2)CC1` [compound 781] stands 2.42*; under `Cc1cc(C(F)(F)F)nn1CC(=O)N1CCC(c2nc(C(=O)Oc3cccc4cccnc34)cs2)CC1` [compound 782], 2.88*; under `Cc1cc(C(F)(F)F)nn1CC(=O)N1CCC(c2nc(C(=O)OCc3cccc4ccccc34)cs2)CC1` [compound 783], 3.90*. Take `Cc1cc(C(F)(F)F)nn1CC(=O)N1CCC(c2nc(C(=O)OCc3ccc4ccccc4c3)cs2)CC1` [compound 784]: the log p is reported as 3.92*.

Turning to `Cc1cc(C(F)(F)F)nn1CC(=O)N1CCC(c2nc(C(=O)OC(C)c3cccc4ccccc34)cs2)CC1` (stereo not shown) [compound 785], the log p is given as 4.16*. Still for that read-out and setting: under `Cc1cc(C(F)(F)F)nn1CC(=O)N1CCC(c2nc(C(=O)OC(C)c3ccc4ccccc4c3)cs2)CC1` (stereo not shown) [compound 786] stands 4.18*. As for `Cc1cc(C(F)(F)F)nn1CC(=O)N1CCC(c2nc(C(=O)OCC#Cc3ccccc3)cs2)CC1` [compound 787], the log p is reported as 3.70*. Same read-out and setting: in the case of `Cc1cc(C(F)(F)F)nn1CC(=O)N1CCC(c2nc(C(=O)OC3CCCCCC3)cs2)CC1` [compound 788] it was 4.09*; in that of `Cc1cc(C(F)(F)F)nn1CC(=O)N1CCC(c2nc(C(=O)Oc3cccc4c3CCCC4)cs2)CC1` [compound 790], 4.21*. Same read-out and setting: under `Cc1cc(C(F)(F)F)nn1CC(=O)N1CCC(c2nc(C(=O)OC3Cc4ccccc4C3)cs2)CC1` [compound 791] stands 3.67*; under `Cc1cc(C(F)(F)F)nn1CC(=O)N1CCC(c2nc(C(=O)Oc3cccc4c3CCCC4)cs2)CC1` [compound 792], 4.30*. Still for that read-out and setting: under `Cc1cc(C(F)(F)F)nn1CC(=O)N1CCC(c2nc(C(=O)Oc3ccc4ncccc4c3)cs2)CC1` [compound 793] stands 2.37*; under `Cc1cc(C(F)(F)F)nn1CC(=O)N1CCC(c2nc(C(=O)Oc3cccc4cnccc34)cs2)CC1` [compound 794], 2.18*. With `Cc1cc(C(F)(F)F)nn1CC(=O)N1CCC(c2nc(C(=O)O[C@@H]3CCCc4ccccc43)cs2)CC1` [compound 795], the log p was 4.06*. For the compound `Cc1cc(C(F)F)n(CC(=O)N2CCC(c3nc(C(=O)OC4CCCCC4)cs3)CC2)n1` [compound 796], the log p was 3.28*. Take `Cc1cc(C)n(C(C)(C)C(=O)N2CCC(c3nc(C(=O)OC4CC(C)CCC4C(C)C)cs3)CC2)n1` (stereo not shown) [compound 797]: the log p is listed as 5.51*.

For the compound `C#CC1(OC(=O)c2csc(C3CCN(C(=O)C(C)(C)n4nc(C)cc4C)CC3)n2)CCCC1` [compound 798], the log p is listed as 3.28*.

For `Cc1cc(C)n(C(C)(C)C(=O)N2CCC(c3nc(C(=O)OC4CC5CCC4(C)C5(C)C)cs3)CC2)n1` (stereo not shown) [compound 800], the log p is recorded as 5.08*.

Take `C=CC(CCC)OC(=O)c1csc(C2CCN(C(=O)C(C)(C)n3nc(C)cc3C)CC2)n1` (stereo not shown) [compound 801]: the log p is recorded as 3.78*.

On to `Cc1cc(C)n(C(C)(C)C(=O)N2CCC(c3nc(C(=O)OC4CC(C)CC(C(C)C)C4)cs3)CC2)n1` (stereo not shown) [compound 802], for which the log p is 5.58*.

As for `Cc1cc(C)n(C(C)(C)C(=O)N2CCC(c3nc(C(=O)OCCN(C)C)cs3)CC2)n1` [compound 803], the log p is reported as 1.03*.

Still in this data set, the particulars now being: * LC-MS determination in the acidic range, pH 2.7, 0.1% aqueous formic acid / acetonitrile gradient.
As for `Cc1cc(C(F)(F)F)nn1CC(=O)N1CCCC(c2nc(C(=O)OCc3ccncc3)cs2)C1` (stereo not shown) [compound 292], the log p is 1.51*.

As for `Cc1cc(C(F)(F)F)nn1CC(=O)N1CCCC(c2nc(C(=O)OCc3cccs3)cs2)C1` (stereo not shown) [compound 293], the log p is listed as 3.23*.

The same data set, now with this note: pH 2.7; read-out: log P (pH 2.7).
For `Cc1cc(C(F)(F)F)nn1CC(=O)N1CCC(c2nc(C(=O)OC3CCCCC3)cs2)CC1` [compound 220, Cyclohexyl 2-(1-{[5-methyl-3-(trifluoromethyl)-1H-pyrazol-1-yl]acetyl}piperidin-4-yl)-1,3-thiazole-4-carboxylate], the chromatographic logP amounted to 3.74. For the compound `Cc1cc(C(F)(F)F)nn1CC(=O)N1CCC(c2nc(C(=O)OC3CCCc4ccccc43)cs2)CC1` (stereo not shown) [compound 224, 1,2,3,4-Tetrahydronaphthalen-1-yl 2-(1-{[5-methyl-3-(trifluoromethyl)-1H-pyrazol-1-yl]acetyl}piperidin-4-yl)-1,3-thiazole-4-carboxylate], the chromatographic logP stood at 4.01.

Take `Cc1cc(C(F)(F)F)nn1CC(=O)N1CCC(c2nc(C(=O)Oc3cccc4ccccc34)cs2)CC1` [compound 227, 1-Naphthyl 2-(1-{[5-methyl-3-(trifluoromethyl)-1H-pyrazol-1-yl]acetyl}piperidin-4-yl)-1,3-thiazole-4-carboxylate]: the chromatographic logP is 3.75. On the same count and under the same terms, in the case of `CC(C)(C)CCOC(=O)c1csc(C2CCN(C(=O)Cn3ccc(C(F)(F)F)n3)CC2)n1` [compound 767, 3,3-Dimethylbutyl 2-(1-{[3-(trifluoromethyl)-1H-pyrazol-1-yl]acetyl}piperidin-4-yl)-1,3-thiazole-4-carboxylate] it was 3.82. Regarding `O=C(Oc1cccc2ccccc12)c1csc(C2CCN(C(=O)Cn3nc(C(F)(F)F)cc3C(F)(F)F)CC2)n1` [compound 771, 1-Naphthyl 2-(1-{[3,5-bis(trifluoromethyl)-1H-pyrazol-1-yl]acetyl}piperidin-4-yl)-1,3-thiazole-4-carboxylate], the chromatographic logP is 4.35. On the same count and under the same terms, in the case of `O=C(OC1CCCCC1)c1csc(C2CCN(C(=O)Cn3nc(C(F)(F)F)cc3C(F)(F)F)CC2)n1` [compound 772, Cyclohexyl 2-(1-{[3,5-bis(trifluoromethyl)-1H-pyrazol-1-yl]acetyl}piperidin-4-yl)-1,3-thiazole-4-carboxylate] it was 4.39.

The data set is the same for the next values; noted with them: reversed-phase (C18) HPLC column; * LC-MS determination in the acidic range at pH 2.7, 0.1% aqueous formic acid and acetonitrile, linear gradient 10% to 95% acetonitrile; read-out: log p.
With `CC(C)(C)CCOC(=O)c1csc(C2CCN(C(=O)Cn3ccc(C(F)(F)F)n3)CC2)n1` [compound 767, 3,3-Dimethylbutyl 2-(1-{[3-(trifluoromethyl)-1H-pyrazol-1-yl]acetyl}piperidin-4-yl)-1,3-thiazole-4-carboxylate], the chromatographic logP amounted to 3.82.

Staying with this data set, now noted: reversed-phase (C18) HPLC column; * LC-MS determination in the acidic range, pH 2.7, 0.1% aqueous formic acid / acetonitrile gradient; read-out: log p.
`Cc1cc(C(F)(F)F)nn1CC(=O)N1CCC(c2nc(C(=O)OC3CCCc4ccccc43)cs2)CC1` (stereo not shown) [compound 224, 1,2,3,4-Tetrahydronaphthalen-1-yl 2-(1-{[5-methyl-3-(trifluoromethyl)-1H-pyrazol-1-yl]acetyl}piperidin-4-yl)-1,3-thiazole-4-carboxylate]: the chromatographic logP was found to be 4.01. Same read-out and setting: under `Cc1cc(C(F)(F)F)nn1CC(=O)N1CCC(c2nc(C(=O)Oc3cccc4ccccc34)cs2)CC1` [compound 227, 1-Naphthyl 2-(1-{[5-methyl-3-(trifluoromethyl)-1H-pyrazol-1-yl]acetyl}piperidin-4-yl)-1,3-thiazole-4-carboxylate] stands 3.75.

The data set is the same for the next values; noted with them: reversed-phase C18 HPLC column; * LC-MS determination in the acidic range at pH 2.7, 0.1% aqueous formic acid and acetonitrile, linear gradient 10% to 95% acetonitrile, reversed-phase C 18; read-out: log p.
Consider `Cc1cc(C(F)(F)F)nn1CC(=O)N1CCC(c2nc(C(=O)OC3CCCCC3)cs2)CC1` [compound 220, Cyclohexyl 2-(1-{[5-methyl-3-(trifluoromethyl)-1H-pyrazol-1-yl]acetyl}piperidin-4-yl)-1,3-thiazole-4-carboxylate], for which the chromatographic logP turned out to be 3.74.

Still in this data set, the particulars now being: reversed-phase C18 HPLC column; * LC-MS determination in the acidic range at pH 2.7, mobile phases 0.1% aqueous formic acid and acetonitrile (0.1% formic acid), linear gradient 10% to 95% acetonitrile; reversed-phase C 18 HPLC; read-out: log p.
`O=C(Oc1cccc2ccccc12)c1csc(C2CCN(C(=O)Cn3nc(C(F)(F)F)cc3C(F)(F)F)CC2)n1` [compound 771, 1-Naphthyl 2-(1-{[3,5-bis(trifluoromethyl)-1H-pyrazol-1-yl]acetyl}piperidin-4-yl)-1,3-thiazole-4-carboxylate]: the chromatographic logP was determined as 4.35. Same read-out and setting: under `O=C(OC1CCCCC1)c1csc(C2CCN(C(=O)Cn3nc(C(F)(F)F)cc3C(F)(F)F)CC2)n1` [compound 772, Cyclohexyl 2-(1-{[3,5-bis(trifluoromethyl)-1H-pyrazol-1-yl]acetyl}piperidin-4-yl)-1,3-thiazole-4-carboxylate] stands 4.39.
